According to US12448400B2, “KRAS G12D modulating compounds” (priority 2023, dated 2025):

Test system: GP2D (KRAS G12D) cells
Test: 2D cell viability assay (CellTiter-Glo)
Type: cell-based
Details: 96 h; GP2D cells, 4 days, CellTiter-Glo luminescence; read-out: G12D 2D EC50
Protocol: Example B. 2D Cell Viability Assay
Compounds were tested in a 384-well format for their ability to inhibit the viability of GP2D (KRAS G12D) cells in 2D assays. Compounds were serially diluted (1:3) in DMSO. The LabCyte ECHO Acoustic dispenser system was used to pre-spot assay plates with 200 nL of test molecule per well. 1000 cells/well (40 μL volume per well) in RPMI medium with 10% FBS, and Penicillin-Streptomycin-Glutamine were plated in pre-spotted 384-well plates (Greiner, Catalog #781076) on the BioTEK EL406 liquid dispenser with a 5 μL dispensing cassette (BioTek 7170011). The plates were incubated at 37° C., 5% CO2 for 4 days before addition of CellTiter-Glo (CTG) reagent and measurement of luminescence signal. EC50 values were defined as the compound concentration that causes a 50% decrease in luminescence signal and were calculated using a sigmoidal dose-response model to generate curve fits.

In the case of `CCc1c(F)ccc2cc(O)cc(-c3c(F)c4c5c(nc(OC[C@@]67CCCN6C[C@H](F)C7)nc5c3F)N3C[C@H]5CC[C@H](N5)[C@H]3CCC4)c12` (atropisomer, axis not shown; (aR)) [Example 77-P, 4-((1S,4R,11R,15aR)-10,12-difluoro-8-(((2R,7aS)-2-fluorotetrahydro-1H-pyrrolizin-7a(5H)-yl)methoxy)-2,3,4,5,13,14,15,15a-octahydro-1H-1,4-epiminoazepino[1′,2′:1,8]azocino[2,3,4-de]quinazolin-11-yl)-5-ethyl-6-fluoronaphthalen-2-ol], the EC50 is reported as 0.29 nM.
With `C#Cc1c(F)ccc2cc(O)cc(-c3c(F)c4c5c(nc(OC[C@]6(C)CN(C)CC[C@@H]6C(F)F)nc5c3F)N3C[C@H]5CC[C@@H]([C@H]3CCC4)N5Cc3oc(=O)oc3C)c12` (atropisomer, axis not shown; (aR)) [Example 78, 4-(((1S,4R,15aR)-8-(((3S,4S)-4-(difluoromethyl)-1,3-dimethylpiperidin-3-yl)methoxy)-11-((R)-8-ethynyl-7-fluoro-3-hydroxynaphthalen-1-yl)-10,12-difluoro-2,3,4,5,13,14,15,15a-octahydro-1H-1,4-epiminoazepino[1′,2′:1,8]azocino[2,3,4-de]quinazolin-16-yl)methyl)-5-methyl-1,3-dioxol-2-one] the EC50 was 0.08 nM.
`Cc1oc(=O)oc1CN1[C@@H]2CC[C@H]1[C@@H]1[C@@H](C)Cc3c(Cl)c(-c4ccc(F)c5sc(N)c(C#N)c45)c(F)c4nc(OC[C@@]56CCCN5C[C@H](F)C6)nc(c34)N1C2` (atropisomer, axis not shown; (aS)) [Example 71, 2-amino-4-((1S,4R,11R,14S,14aS)-12-chloro-10-fluoro-8-(((2R,7aS)-2-fluorotetrahydro-1H-pyrrolizin-7a(5H)-yl)methoxy)-14-methyl-15-((5-methyl-2-oxo-1,3-dioxol-4-yl)methyl)-1,2,3,4,5,13,14,14a-octahydro-1,4-epiminoazepino[1′,2′:1,7]azepino[2,3,4-de]quinazolin-11-yl)-7-fluorobenzo[b]thiophene-3-carbonitrile] gave an EC50 of 0.41 nM.
For `C[C@H]1Cc2c(Cl)c(-c3ccc(F)c4sc(N)c(C#N)c34)c(F)c3nc(OC[C@@]45CCCN4C[C@H](F)C5)nc(c23)N2C[C@H]3CC[C@H](N3)[C@H]12` (atropisomer, axis not shown; (aS)) [Example 71-P, 2-amino-4-((1S,4R,11R,14S,14aS)-12-chloro-10-fluoro-8-(((2R,7aS)-2-fluorotetrahydro-1H-pyrrolizin-7a(5H)-yl)methoxy)-14-methyl-1,2,3,4,5,13,14,14a-octahydro-1,4-epiminoazepino[1′,2′:1,7]azepino[2,3,4-de]quinazolin-11-yl)-7-fluorobenzo[b]thiophene-3-carbonitrile], the EC50 was 0.18 nM.
`C#Cc1c(F)ccc2cccc(-c3nc4c5c(nc(OC[C@@]67CCCN6C[C@H](F)C7)nc5c3F)N3C[C@H]5CC[C@@H]([C@H]3CCC4)N5Cc3oc(=O)oc3CCCCC)c12` [Example 20, 4-(((6aR,7S,10R)-2-(8-ethynyl-7-fluoronaphthalen-1-yl)-1-fluoro-13-(((2R,7aS)-2-fluorotetrahydro-1H-pyrrolizin-7a(5H)-yl)methoxy)-5,6,6a,7,8,9,10,11-octahydro-4H-3,11a,12,14,15-pentaaza-7,10-methanocyclohepta[4,5]cycloocta[1,2,3-de]naphthalen-15-yl)methyl)-5-pentyl-1,3-dioxol-2-one] was tested, and the EC50 was 5 nM.
`C#Cc1c(F)ccc2cccc(-c3nc4c5c(nc(OC[C@@]67CCCN6C[C@H](F)C7)nc5c3F)N3C[C@H]5CC[C@@H]([C@H]3CCC4)N5Cc3oc(=O)oc3CCCCCC)c12` [Example 21, 4-(((6aR,7S,10R)-2-(8-ethynyl-7-fluoronaphthalen-1-yl)-1-fluoro-13-(((2R,7aS)-2-fluorotetrahydro-1H-pyrrolizin-7a(5H)-yl)methoxy)-5,6,6a,7,8,9,10,11-octahydro-4H-3,11a,12,14,15-pentaaza-7,10-methanocyclohepta[4,5]cycloocta[1,2,3-de]naphthalen-15-yl)methyl)-5-hexyl-1,3-dioxol-2-one] gave an EC50 of 5.2 nM.
For `CCCCc1oc(=O)oc1CN1[C@@H]2CC[C@H]1[C@H]1CCCc3nc(-c4cc(O)cc5ccc(F)c(OC(F)(F)F)c45)c(F)c4nc(OC[C@@]56CCCN5C[C@H](F)C6)nc(c34)N1C2` [Example 22, 4-butyl-5-(((6aR,7S,10R)-1-fluoro-2-(7-fluoro-3-hydroxy-8-(trifluoromethoxy)naphthalen-1-yl)-13-(((2R,7aS)-2-fluorotetrahydro-1H-pyrrolizin-7a(5H)-yl)methoxy)-5,6,6a,7,8,9,10,11-octahydro-4H-3,11a,12,14,15-pentaaza-7,10-methanocyclohepta[4,5]cycloocta[1,2,3-de]naphthalen-15-yl)methyl)-1,3-dioxol-2-one], the EC50 was 0.85 nM.
`CCCCCc1oc(=O)oc1CN1[C@@H]2CC[C@H]1[C@H]1CCCc3nc(-c4cc(O)cc5ccc(F)c(OC(F)(F)F)c45)c(F)c4nc(OC[C@@]56CCCN5C[C@H](F)C6)nc(c34)N1C2` [Example 23, 4-(((6aR,7S,10R)-1-fluoro-2-(7-fluoro-3-hydroxy-8-(trifluoromethoxy)naphthalen-1-yl)-13-(((2R,7aS)-2-fluorotetrahydro-1H-pyrrolizin-7a(5H)-yl)methoxy)-5,6,6a,7,8,9,10,11-octahydro-4H-3,11a,12,14,15-pentaaza-7,10-methanocyclohepta[4,5]cycloocta[1,2,3-de]naphthalen-15-yl)methyl)-5-pentyl-1,3-dioxol-2-one] showed an EC50 of 0.92 nM.
In the case of `CCCCCCc1oc(=O)oc1CN1[C@@H]2CC[C@H]1[C@H]1CCCc3nc(-c4cc(O)cc5ccc(F)c(OC(F)(F)F)c45)c(F)c4nc(OC[C@@]56CCCN5C[C@H](F)C6)nc(c34)N1C2` [Example 24, 4-(((6aR,7S,10R)-1-fluoro-2-(7-fluoro-3-hydroxy-8-(trifluoromethoxy)naphthalen-1-yl)-13-(((2R,7aS)-2-fluorotetrahydro-1H-pyrrolizin-7a(5H)-yl)methoxy)-5,6,6a,7,8,9,10,11-octahydro-4H-3,11a,12,14,15-pentaaza-7,10-methanocyclohepta[4,5]cycloocta[1,2,3-de]naphthalen-15-yl)methyl)-5-hexyl-1,3-dioxol-2-one], the EC50 is reported as 1.1 nM.
Molecule `C#Cc1c(F)ccc2cc(OC(=O)O[C@@H](C)C(C)C)cc(-c3nc4c5c(nc(OC[C@@]67CCCN6C[C@H](F)C7)nc5c3F)N3C[C@H]5CC[C@@H]([C@H]3CCC4)N5Cc3oc(=O)oc3C)c12` [Example 39, 5-ethynyl-6-fluoro-4-((6aR,7S,10R)-1-fluoro-13-(((2R,7aS)-2-fluorotetrahydro-1H-pyrrolizin-7a(5H)-yl)methoxy)-15-((5-methyl-2-oxo-1,3-dioxol-4-yl)methyl)-5,6,6a,7,8,9,10,11-octahydro-4H-3,11a,12,14,15-pentaaza-7,10-methanocyclohepta[4,5]cycloocta[1,2,3-de]naphthalen-2-yl)naphthalen-2-yl ((S)-3-methylbutan-2-yl) carbonate] has an EC50 of 0.26 nM.
